Where a name gives a salt, the structure may show the parent alone.
biological target: T1, Adrenergic β2 (Homo sapiens, UniProt P07550); assay: Adrenergic β2 mediated cAMP production in H292 cells (AlphaScreen cAMP detection); format: cell-based; conditions: Intrinsic Activity, fraction relative to the maximum activity determined for formoterol
T1 construct: Adherent H292 cells were removed from tissue culture flasks; endogenous in cells; host or cells: H292 cells
How it was run: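 H292 cells, 5000/well, preincubated 10 min with rolipram (final 300 μM, 1.6% DMSO) in HEPES pH 7.4 HBSS, then compound 60 min at room temperature. Lysate cAMP quantified by AlphaScreen against a cAMP standard curve. pEC50 and intrinsic activity (fraction of formoterol maximum) from four-parameter logistic fits.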

T1 sequence (P07550 whole entry): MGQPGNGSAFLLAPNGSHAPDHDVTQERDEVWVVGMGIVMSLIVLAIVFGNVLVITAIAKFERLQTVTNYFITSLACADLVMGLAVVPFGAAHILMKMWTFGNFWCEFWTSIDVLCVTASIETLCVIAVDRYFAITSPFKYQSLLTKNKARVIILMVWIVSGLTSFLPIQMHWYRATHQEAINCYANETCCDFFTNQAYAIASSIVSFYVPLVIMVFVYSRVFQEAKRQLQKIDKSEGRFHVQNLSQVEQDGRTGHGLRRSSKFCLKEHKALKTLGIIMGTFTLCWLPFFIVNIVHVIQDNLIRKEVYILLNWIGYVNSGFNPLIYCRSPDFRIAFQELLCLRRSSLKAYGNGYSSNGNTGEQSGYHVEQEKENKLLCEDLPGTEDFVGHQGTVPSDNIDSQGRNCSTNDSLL

SMILES	β2 Int Act
CCCC(CCC)N(CCNCCc1ccc(O)c2[nH]c(=O)sc12)C(=O)CCNCCc1cccc(F)c1 [Example 63, N^3-[2-(3-Fluorophenyl)ethyl]-N^1-(2-{[2-(4-hydroxy-2-oxo-2,3-dihydro-1,3-benzothiazol-7-yl)ethyl]amino}ethyl)-N^1-(1-propylbutyl)-β-alaninamide bis-trifluoroacetic acid salt]	0.93
CCCC(CCC)N(CCNCCc1ccc(O)c2[nH]c(=O)sc12)C(=O)CCNCCc1ccc(F)cc1 [Example 64, N^3-[2-(4-Fluorophenyl)ethyl]-N^1-(2-{[2-(4-hydroxy-2-oxo-2,3-dihydro-1,3-benzothiazol-7-yl)ethyl]amino}ethyl)-N^1-(1-propylbutyl)-β-alaninamide bis-trifluoroacetic acid salt]	0.70
CC(C)(CO)CN(CCNCCc1ccc(O)c2[nH]c(=O)sc12)C(=O)CCNCCc1ccccc1Cl [Example 65, N^3-[2-(2-Chlorophenyl)ethyl]-N^1-(3-hydroxy-2,2-dimethylpropyl)-N^1-(2-{[2-(4-hydroxy-2-oxo-2,3-dihydro-1,3-benzothiazol-7-yl)ethyl]amino}ethyl)-β-alaninamide bis-trifluoroacetic acid salt]	0.59
CC(C)(CO)CN(CCNCCc1ccc(O)c2[nH]c(=O)sc12)C(=O)CCNCCc1cccc(Cl)c1 [Example 66, N^3-[2-(3-Chlorophenyl)ethyl]-N^1-(3-hydroxy-2,2-dimethylpropyl)-N^1-(2-{[2-(4-hydroxy-2-oxo-2,3-dihydro-1,3-benzothiazol-7-yl)ethyl]amino}ethyl)-β-alaninamide bis-trifluoroacetic acid salt]	0.59
CC(C)(CO)CN(CCNCCc1ccc(O)c2[nH]c(=O)sc12)C(=O)CCNCCc1cccc(Cl)c1Cl [Example 67, N^3-[2-(2,3-Dichlorophenyl)ethyl]-N^1-(3-hydroxy-2,2-dimethylpropyl)-N^1-(2-{[2-(4-hydroxy-2-oxo-2,3-dihydro-1,3-benzothiazol-7-yl)ethyl]amino}ethyl)-β-alaninamide bis-trifluoroacetic acid salt]	0.70
COc1ccc(CCNCCC(=O)N(CCNCCc2ccc(O)c3[nH]c(=O)sc23)C2CCCCC2)cc1 [Example 68, N^1-Cyclohexyl-N^1-(2-{[2-(4-hydroxy-2-oxo-2,3-dihydro-1,3-benzothiazol-7-yl)ethyl]amino}ethyl)-N^3-[2-(4-methoxyphenyl)ethyl]-β-alaninamide bis-trifluoroacetic acid salt]	0.68
NS(=O)(=O)c1ccc(CCNCCC(=O)N(CCNCCc2ccc(O)c3[nH]c(=O)sc23)C2CCCCC2)cc1 [Example 69, N^3-{2-[4-(Aminosulfonyl)phenyl]ethyl}-N^1-cyclohexyl-N^1-(2-{[2-(4-hydroxy-2-oxo-2,3-dihydro-1,3-benzothiazol-7-yl)ethyl]amino}ethyl)-β-alaninamide bis-trifluoroacetic acid salt]	0.82
COc1cccc(CCNCCC(=O)N(CCNCCc2ccc(O)c3[nH]c(=O)sc23)C2CCCCC2)c1 [Example 70, N^1-Cyclohexyl-N^1-(2-{[2-(4-hydroxy-2-oxo-2,3-dihydro-1,3-benzothiazol-7-yl)ethyl]amino}ethyl)-N^3-[2-(3-methoxyphenyl)ethyl]-β-alaninamide bis-trifluoroacetic acid salt]	0.84
O=C(CCNCCc1cccc(O)c1)N(CCNCCc1ccc(O)c2[nH]c(=O)sc12)C1CCCCC1 [Example 71, N^1-Cyclohexyl-N^1-(2-{[2-(4-hydroxy-2-oxo-2,3-dihydro-1,3-benzothiazol-7-yl)ethyl]amino}ethyl)-N^3-[2-(3-hydroxyphenyl)ethyl]-β-alaninamide bis-trifluoroacetic acid salt]	0.97
O=C(CCNCCc1ccc(Cl)s1)N(CCNCCc1ccc(O)c2[nH]c(=O)sc12)C1CCCCC1 [Example 72, N^3-[2-(5-Chloro-2-thienyl)ethyl]-N^1-cyclohexyl-N^1-(2-{[2-(4-hydroxy-2-oxo-2,3-dihydro-1,3-benzothiazol-7-yl)ethyl]amino}ethyl)-β-alaninamide bis-trifluoroacetic acid salt]	0.89
O=C(CCNCCc1ccc(F)c(F)c1)N(CCNCCc1ccc(O)c2[nH]c(=O)sc12)C1CCCCC1 [Example 73, N^1-Cyclohexyl-N^3-[2-(3,4-difluorophenyl)ethyl]-N^1-(2-{[2-(4-hydroxy-2-oxo-2,3-dihydro-1,3-benzothiazol-7-yl)ethyl]amino}ethyl)-β-alaninamide bis-trifluoroacetic acid salt]	0.85
O=C(CCNC[C@@H](O)c1ccccc1)N(CCNCCc1ccc(O)c2[nH]c(=O)sc12)C1CCCCC1 [Example 74, N^1-Cyclohexyl-N^1-(2-{[2-(4-hydroxy-2-oxo-2,3-dihydro-1,3-benzothiazol-7-yl)ethyl]amino}ethyl)-N^3-[(2S)-2-hydroxy-2-phenylethyl]-β-alaninamide bis-trifluoroacetic acid salt]	0.79
O=C(CCNC[C@H](O)c1ccccc1)N(CCNCCc1ccc(O)c2[nH]c(=O)sc12)C1CCCCC1 [Example 75, N^1-Cyclohexyl-N^1-(2-{[2-(4-hydroxy-2-oxo-2,3-dihydro-1,3-benzothiazol-7-yl)ethyl]amino}ethyl)-N^3-[(2R)-2-hydroxy-2-phenylethyl]-β-alaninamide bis-trifluoroacetic acid salt]	0.91
O=C(CCNCCc1ccc2c(c1)OCO2)N(CCNCCc1ccc(O)c2[nH]c(=O)sc12)C1CCCCC1 [Example 76, N^3-[2-(1,3-Benzodioxol-5-yl)ethyl]-N^1-cyclohexyl-N^1-(2-{[2-(4-hydroxy-2-oxo-2,3-dihydro-1,3-benzothiazol-7-yl)ethyl]amino}ethyl)-β-alaninamide bis-trifluoroacetic acid salt]	0.68
O=C(CCNCCc1nc2ccccc2[nH]1)N(CCNCCc1ccc(O)c2[nH]c(=O)sc12)C1CCCCC1 [Example 77, N^3-[2-(1H-Benzimidazol-2-yl)ethyl]-N^1-cyclohexyl-N^1-(2-{[2-(4-hydroxy-2-oxo-2,3-dihydro-1,3-benzothiazol-7-yl)ethyl]amino}ethyl)-β-alaninamide tris-trifluoroacetic acid salt]	0.54
O=C(CCNCCc1cc(F)cc(F)c1)N(CCNCCc1ccc(O)c2[nH]c(=O)sc12)C1CCCCC1 [Example 78, N^1-Cyclohexyl-N^3-[2-(3,5-difluorophenyl)ethyl]-N^1-(2-{[2-(4-hydroxy-2-oxo-2,3-dihydro-1,3-benzothiazol-7-yl)ethyl]amino}ethyl)-β-alaninamide bis-trifluoroacetic acid salt]	0.91
O=C(CCNCCc1cc(F)ccc1F)N(CCNCCc1ccc(O)c2[nH]c(=O)sc12)C1CCCCC1 [Example 79, N^1-Cyclohexyl-N^3-[2-(2,5-difluorophenyl)ethyl]-N^1-(2-{[2-(4-hydroxy-2-oxo-2,3-dihydro-1,3-benzothiazol-7-yl)ethyl]amino}ethyl)-β-alaninamide bis-trifluoroacetic acid salt]	0.84
O=C(CCNCCC(F)(F)F)N(CCNCCc1ccc(O)c2[nH]c(=O)sc12)C1CCCCC1 [Example 80, N^1-Cyclohexyl-N^1-(2-{[2-(4-hydroxy-2-oxo-2,3-dihydro-1,3-benzothiazol-7-yl)ethyl]amino}ethyl)-N^3-(3,3,3-trifluoropropyl)-β-alaninamide bis-trifluoroacetic acid salt]	0.86
O=C(CCNCCc1cccc(F)c1F)N(CCNCCc1ccc(O)c2[nH]c(=O)sc12)C1CCCCC1 [Example 81, N^1-Cyclohexyl-N^3-[2-(2,3-difluorophenyl)ethyl]-N^1-(2-{[2-(4-hydroxy-2-oxo-2,3-dihydro-1,3-benzothiazol-7-yl)ethyl]amino}ethyl)-β-alaninamide bis-trifluoroacetic acid salt]	0.89
O=C(CCNCCc1cccc(C(F)(F)F)c1)N(CCNCCc1ccc(O)c2[nH]c(=O)sc12)C1CCCCCC1 [Example 82, N^1-Cycloheptyl-N^1-(2-{[2-(4-hydroxy-2-oxo-2,3-dihydro-1,3-benzothiazol-7-yl)ethyl]amino}ethyl)-N^3-{2-[3-(trifluoromethyl)phenyl]ethyl}-β-alaninamide bis-trifluoroacetic acid salt]	0.86
O=C(CCNCCc1cc(F)ccc1F)N(CCNCCc1ccc(O)c2[nH]c(=O)sc12)C1CCCCCC1 [Example 83, N^1-Cycloheptyl-N^3-[2-(2,5-difluorophenyl)ethyl]-N^1-(2-{[2-(4-hydroxy-2-oxo-2,3-dihydro-1,3-benzothiazol-7-yl)ethyl]amino}ethyl)-β-alaninamide bis-trifluoroacetic acid salt]	0.71
O=C(CCNCCc1c(F)cccc1F)N(CCNCCc1ccc(O)c2[nH]c(=O)sc12)C1CCCCCC1 [Example 84, N^1-Cycloheptyl-N^3-[2-(2,6-difluorophenyl)ethyl]-N^1-(2-{[2-(4-hydroxy-2-oxo-2,3-dihydro-1,3-benzothiazol-7-yl)ethyl]amino}ethyl)-β-alaninamide bis-trifluoroacetic acid salt]	0.89
Cc1cccc(CCNCCC(=O)N(CCNCCc2ccc(O)c3[nH]c(=O)sc23)C2CCCCCC2)c1 [Example 85, N^1-Cycloheptyl-N^1-(2-{[2-(4-hydroxy-2-oxo-2,3-dihydro-1,3-benzothiazol-7-yl)ethyl]amino}ethyl)-N^3-[2-(3-methylphenyl)ethyl]-β-alaninamide bis-trifluoroacetic acid salt]	0.65
COc1ccc(CCNCCC(=O)N(CCNCCc2ccc(O)c3[nH]c(=O)sc23)C2CCCCCC2)cc1OC [Example 86, N^1-Cycloheptyl-N^3-[2-(3,4-dimethoxyphenyl)ethyl]-N^1-(2-{[2-(4-hydroxy-2-oxo-2,3-dihydro-1,3-benzothiazol-7-yl)ethyl]amino}ethyl)-β-alaninamide bis-trifluoroacetic acid salt]	0.43

Reference: patent US7700782B2, “Compounds 569” (AstraZeneca AB, priority 2007, dated 2010)
